Experimental data published in ChEMBL document CHEMBL3885881, “DrugMatrix”.

Species on record: Rattus norvegicus
Experiment: DrugMatrix - Regimen: Daily Repeat
Assay type: toxicity, organism-based, Sprague-Dawley
Parameters: regimen Daily Repeat, gender Male, age 6-8 weeks
Conditions: in vivo, po, route oral GAVAGE, vehicle 100 % WATER; for ABSOLUTE BASOPHIL / ABSOLUTE EOSINOPHIL / ABSOLUTE LYMPHOCYTE / ABSOLUTE MONOCYTE / ABSOLUTE SEGMENTED NEUTROPHIL / BASOPHIL / EOSINOPHIL / ERYTHROCYTE COUNT / HEMATOCRIT / HEMOGLOBIN / LEUKOCYTE COUNT / LYMPHOCYTE / MEAN CORPUSCULAR HEMOGLOBIN / MEAN CORPUSCULAR HEMOGLOBIN CONCENTRATION / MEAN CORPUSCULAR VOLUME / MONOCYTE / NEUTROPHIL / NUCLEATED RED BLOOD CELLS / PLATELET COUNT: tissue Blood; for ALANINE AMINOTRANSFERASE / ALBUMIN / ALKALINE PHOSPHATASE / ASPARTATE AMINOTRANSFERASE / BLOOD UREA NITROGEN / CARBON DIOXIDE / CHLORIDE / CHOLESTEROL / CREATINE PHOSPHOKINASE / CREATININE / GLUCOSE / LACTATE DEHYDROGENASE / LIPASE / PHOSPHORUS / POTASSIUM / SODIUM / TOTAL BILIRUBIN / TOTAL PROTEIN / URIC ACID: tissue Plasma
[1] = 0 mg/kg, 72 h, dose level Control, time 3 day
[2] = 0 mg/kg, 120 h, dose level Control, time 5 day
[3] = 63 mg/kg, 72 h, dose level High, time 3 day

In the case of `CNCCC=C1c2ccccc2CCc2ccccc21` [NORTRIPTYLINE], the “ABSOLUTE BASOPHIL” value [1] is reported as 0 CELLS/uL, the “ABSOLUTE EOSINOPHIL” value [1] is reported as 123.17 CELLS/uL and the “ABSOLUTE LYMPHOCYTE” value [1] is reported as 12677.83 CELLS/uL. The “ABSOLUTE MONOCYTE” value [1] was 66.17 CELLS/uL, the “ABSOLUTE SEGMENTED NEUTROPHIL” value [1] was 1149.5 CELLS/uL and the BASOPHIL [1] was 0%. For the same compound, the EOSINOPHIL [1] was 0.83%, the “ERYTHROCYTE COUNT” value [1] was 5.26 x10E6/uL and the HEMATOCRIT [1] was 33.07%. The HEMOGLOBIN [1] was 13.43 G/DL, the “LEUKOCYTE COUNT” value [1] was 14.02 x10E3/uL and the LYMPHOCYTE [1] was 90.17%. For the same compound, the “MEAN CORPUSCULAR HEMOGLOBIN” value [1] was 25.62 pg, the “MEAN CORPUSCULAR HEMOGLOBIN CONCENTRATION” value [1] was 40.65 G/DL and the “MEAN CORPUSCULAR VOLUME” value [1] was 63 fL. For the same compound, the MONOCYTE [1] was 0.5%, the NEUTROPHIL [1] was 8.5% and the “NUCLEATED RED BLOOD CELLS” value [1] was 0.17 /100WBC. For the same compound, the “PLATELET COUNT” value [1] was 1142.83 x10E3/uL, the “ALANINE AMINOTRANSFERASE” value [1] was 45.17 u/L and the ALBUMIN [1] was 3.78 G/DL. For the same compound, the “ALKALINE PHOSPHATASE” value [1] was 340.17 u/L, the “ASPARTATE AMINOTRANSFERASE” value [1] was 77.33 u/L and the “BLOOD UREA NITROGEN” value [1] was 14.67 mg/dL. The “CARBON DIOXIDE” value [1] was 28.67 mmol/L, the CHLORIDE [1] was 101.17 MEQ/L and the CHOLESTEROL [1] was 77.67 mg/dL. For the same compound, the “CREATINE PHOSPHOKINASE” value [1] was 263.67 u/L, the CREATININE [1] was 0.15 mg/dL and the GLUCOSE [1] was 169.33 mg/dL. For the same compound, the “LACTATE DEHYDROGENASE” value [1] was 230 u/L, the LIPASE [1] was 9.67 u/L and the PHOSPHORUS [1] was 11.8 mg/dL. The POTASSIUM [1] was 5.91 MEQ/L, the SODIUM [1] was 142.88 MEQ/L and the “TOTAL BILIRUBIN” value [1] was 0.22 mg/dL. The “TOTAL PROTEIN” value [1] was 5.7 G/DL, the “URIC ACID” value [1] was 1.35 mg/dL and the “ABSOLUTE BASOPHIL” value [2] was 0 CELLS/uL. The “ABSOLUTE EOSINOPHIL” value [2] was 125 CELLS/uL, the “ABSOLUTE LYMPHOCYTE” value [2] was 13809 CELLS/uL and the “ABSOLUTE MONOCYTE” value [2] was 351 CELLS/uL. For the same compound, the “ABSOLUTE SEGMENTED NEUTROPHIL” value [2] was 1581.67 CELLS/uL, the BASOPHIL [2] was 0% and the EOSINOPHIL [2] was 0.67%. For the same compound, the “ERYTHROCYTE COUNT” value [2] was 5.53 x10E6/uL, the HEMATOCRIT [2] was 34.83% and the HEMOGLOBIN [2] was 13.9 G/DL. The “LEUKOCYTE COUNT” value [2] was 15.87 x10E3/uL, the LYMPHOCYTE [2] was 87.5% and the “MEAN CORPUSCULAR HEMOGLOBIN” value [2] was 25.25 pg. For the same compound, the “MEAN CORPUSCULAR HEMOGLOBIN CONCENTRATION” value [2] was 40.08 G/DL, the “MEAN CORPUSCULAR VOLUME” value [2] was 63.05 fL and the MONOCYTE [2] was 2.17%. For the same compound, the NEUTROPHIL [2] was 9.67%, the “NUCLEATED RED BLOOD CELLS” value [2] was 0 /100WBC and the “PLATELET COUNT” value [2] was 1044 x10E3/uL. For the same compound, the “ALANINE AMINOTRANSFERASE” value [2] was 50.67 u/L, the ALBUMIN [2] was 4.33 G/DL and the “ALKALINE PHOSPHATASE” value [2] was 395 u/L. The “ASPARTATE AMINOTRANSFERASE” value [2] was 86 u/L, the “BLOOD UREA NITROGEN” value [2] was 15.33 mg/dL and the “CARBON DIOXIDE” value [2] was 29.33 mmol/L. The CHLORIDE [2] was 101.5 MEQ/L, the CHOLESTEROL [2] was 71.33 mg/dL and the “CREATINE PHOSPHOKINASE” value [2] was 323.17 u/L. For the same compound, the CREATININE [2] was 0.18 mg/dL, the GLUCOSE [2] was 145.67 mg/dL and the “LACTATE DEHYDROGENASE” value [2] was 389.5 u/L. It also gave an LIPASE [2] of 9.83 u/L, a PHOSPHORUS [2] of 11.35 mg/dL and a POTASSIUM [2] of 6.39 MEQ/L. For the same compound, the SODIUM [2] was 142.77 MEQ/L, the “TOTAL BILIRUBIN” value [2] was 0.18 mg/dL and the “TOTAL PROTEIN” value [2] was 6.1 G/DL. For the same compound, the “URIC ACID” value [2] was 1.52 mg/dL, the “ABSOLUTE BASOPHIL” value [3] was 0 CELLS/uL and the “ABSOLUTE EOSINOPHIL” value [3] was 63 CELLS/uL. For the same compound, the “ABSOLUTE LYMPHOCYTE” value [3] was 15345.67 CELLS/uL, the “ABSOLUTE MONOCYTE” value [3] was 215.33 CELLS/uL and the “ABSOLUTE SEGMENTED NEUTROPHIL” value [3] was 642.67 CELLS/uL. For the same compound, the BASOPHIL [3] was 0%, the EOSINOPHIL [3] was 0.33% and the “ERYTHROCYTE COUNT” value [3] was 6.2 x10E6/uL. The HEMATOCRIT [3] was 38.33%, the HEMOGLOBIN [3] was 14.97 G/DL and the “LEUKOCYTE COUNT” value [3] was 16.27 x10E3/uL. The LYMPHOCYTE [3] was 94.33%, the “MEAN CORPUSCULAR HEMOGLOBIN” value [3] was 24.13 pg and the “MEAN CORPUSCULAR HEMOGLOBIN CONCENTRATION” value [3] was 39.07 G/DL. The “MEAN CORPUSCULAR VOLUME” value [3] was 61.83 fL, the MONOCYTE [3] was 1.33% and the NEUTROPHIL [3] was 4%. For the same compound, the “NUCLEATED RED BLOOD CELLS” value [3] was 1 /100WBC, the “PLATELET COUNT” value [3] was 1320 x10E3/uL and the “ALANINE AMINOTRANSFERASE” value [3] was 47.33 u/L. For the same compound, the ALBUMIN [3] was 3.83 G/DL, the “ALKALINE PHOSPHATASE” value [3] was 416.67 u/L and the “ASPARTATE AMINOTRANSFERASE” value [3] was 75 u/L. For the same compound, the “BLOOD UREA NITROGEN” value [3] was 15 mg/dL, the “CARBON DIOXIDE” value [3] was 29.33 mmol/L and the CHLORIDE [3] was 101 MEQ/L. The CHOLESTEROL [3] was 74.67 mg/dL, the “CREATINE PHOSPHOKINASE” value [3] was 194 u/L and the CREATININE [3] was 0.17 mg/dL. The GLUCOSE [3] was 184 mg/dL, the “LACTATE DEHYDROGENASE” value [3] was 108 u/L and the LIPASE [3] was 9 u/L. For the same compound, the PHOSPHORUS [3] was 13.13 mg/dL, the POTASSIUM [3] was 6.61 MEQ/L and the SODIUM [3] was 143.73 MEQ/L. The “TOTAL BILIRUBIN” value [3] was 0.2 mg/dL, the “TOTAL PROTEIN” value [3] was 5.63 G/DL and the “URIC ACID” value [3] was 1.9 mg/dL.
